Experimental findings from patent US8513283B2, “Spiro substituted compounds as angiogenesis inhibitors” (Advenchen Laboratories, LLC, priority 2007, dated 2013) are described below.

One test deals with c-RAF(h) (Homo sapiens, UniProt P04049). Nature of the test: in vitro kinase inhibition. The class given is biochemical. An excerpt: (§1) Several in vitro tyrosine kinase inhibition activities can be measured according to the description in Rewcastle, G W, J. Med. Chem. 1996, 39, 918-928 and Edwards M, International Biotechnology Lab 5 (3), 19-25, 1987. Oncogene, 1990, 5: 519-524. The Baculovirus Expression System: A Laboratory Guide, L. A. King 1992. Sambrook et al, 1989, Molecular cloning—A Laboratory Manual, 2nd edition, Cold Spring Harbour Laboratory Press. O'Reilly et al, 1992, Baculovirus Expression Vectors—A Laboratory Manual, W. H. Freeman and Co, New York.
(§2) Receptor tyrosine kinase can be obtained in partially purified form from A-431 cells similar to those described by Carpenter et al., J. Biol. Chem., 1979, 254, 4884, Cohen et al., J. Biol. Chem., 1982, 257, 1523 and by Braun et al., J. Biol. Chem., 1984, 259, 2051. Some of these tests can also be contracted with Millipore Upstate Ltd for screening.

The next test deals with KDR(h) (Homo sapiens, UniProt P35968). Nature of the test: in vitro tyrosine kinase inhibition. In kind it is biochemical.
For test [1], the system named is human colon cancer HT29 xenograft. As to the kind of experiment: animal antitumor activity, HT29 xenograft. The class given is in vivo, mice. The settings on record: FIG. 1.
Another test concerns the target Flt4(h) (Homo sapiens, UniProt P35916). As to the kind of experiment: in vitro tyrosine kinase inhibition. The class given is biochemical.
Source text: as §1, §2

Another test addresses Flt1(h) (Homo sapiens, UniProt P17948). Nature of the test: in vitro tyrosine kinase inhibition. The class given is biochemical.
Source text: as §1, §2

A further test addresses PDGFRα(h) (Homo sapiens, UniProt P16234). As to the kind of experiment: in vitro tyrosine kinase inhibition. The class given is biochemical.
Source text: as §1, §2

The target in another test is cKit(h) (Homo sapiens, UniProt P10721). As to the kind of experiment: in vitro tyrosine kinase inhibition. The class given is biochemical.
Source text: as §1, §2

The subject of test [2] is human liver cancer Bel-7402 xenograft. As to the kind of experiment: animal antitumor activity, Bel-7402 xenograft. The class given is in vivo, mice. The conditions noted are these: FIG. 2.

Sequence of Flt4(h) (P35916 25-1363): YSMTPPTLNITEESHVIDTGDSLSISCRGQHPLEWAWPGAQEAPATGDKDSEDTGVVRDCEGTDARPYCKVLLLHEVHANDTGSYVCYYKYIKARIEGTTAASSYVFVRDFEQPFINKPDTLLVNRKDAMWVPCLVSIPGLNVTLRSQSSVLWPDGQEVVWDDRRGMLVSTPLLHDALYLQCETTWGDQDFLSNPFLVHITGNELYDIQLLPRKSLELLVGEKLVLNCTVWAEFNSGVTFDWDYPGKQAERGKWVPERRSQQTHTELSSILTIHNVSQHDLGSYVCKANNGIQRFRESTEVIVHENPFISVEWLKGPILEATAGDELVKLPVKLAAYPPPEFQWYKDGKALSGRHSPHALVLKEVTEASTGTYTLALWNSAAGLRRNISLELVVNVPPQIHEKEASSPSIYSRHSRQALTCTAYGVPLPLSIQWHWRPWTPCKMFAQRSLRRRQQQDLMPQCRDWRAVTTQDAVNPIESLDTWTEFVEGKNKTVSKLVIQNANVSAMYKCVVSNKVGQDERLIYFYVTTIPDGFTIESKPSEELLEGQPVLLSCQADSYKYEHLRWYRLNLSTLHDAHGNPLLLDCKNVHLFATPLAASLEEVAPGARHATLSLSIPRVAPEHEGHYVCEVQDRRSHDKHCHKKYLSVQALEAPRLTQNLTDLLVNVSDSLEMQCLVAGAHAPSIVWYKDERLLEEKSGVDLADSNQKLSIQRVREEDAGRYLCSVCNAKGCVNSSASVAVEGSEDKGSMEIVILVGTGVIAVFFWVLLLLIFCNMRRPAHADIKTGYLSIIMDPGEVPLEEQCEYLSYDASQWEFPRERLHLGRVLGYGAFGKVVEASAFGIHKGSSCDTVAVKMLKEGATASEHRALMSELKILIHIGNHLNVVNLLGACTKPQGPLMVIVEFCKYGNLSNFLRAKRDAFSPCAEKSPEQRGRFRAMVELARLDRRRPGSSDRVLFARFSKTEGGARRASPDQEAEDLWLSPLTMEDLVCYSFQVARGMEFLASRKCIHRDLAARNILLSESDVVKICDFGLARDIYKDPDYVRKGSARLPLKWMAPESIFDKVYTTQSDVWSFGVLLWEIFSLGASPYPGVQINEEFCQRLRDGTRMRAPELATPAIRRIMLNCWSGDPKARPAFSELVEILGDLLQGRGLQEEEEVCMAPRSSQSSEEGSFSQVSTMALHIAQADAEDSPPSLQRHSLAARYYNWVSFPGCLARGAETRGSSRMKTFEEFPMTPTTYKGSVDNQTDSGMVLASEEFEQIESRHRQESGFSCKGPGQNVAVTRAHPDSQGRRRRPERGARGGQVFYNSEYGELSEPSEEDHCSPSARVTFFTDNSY
Sequence of PDGFRα(h) (P16234 24-1089): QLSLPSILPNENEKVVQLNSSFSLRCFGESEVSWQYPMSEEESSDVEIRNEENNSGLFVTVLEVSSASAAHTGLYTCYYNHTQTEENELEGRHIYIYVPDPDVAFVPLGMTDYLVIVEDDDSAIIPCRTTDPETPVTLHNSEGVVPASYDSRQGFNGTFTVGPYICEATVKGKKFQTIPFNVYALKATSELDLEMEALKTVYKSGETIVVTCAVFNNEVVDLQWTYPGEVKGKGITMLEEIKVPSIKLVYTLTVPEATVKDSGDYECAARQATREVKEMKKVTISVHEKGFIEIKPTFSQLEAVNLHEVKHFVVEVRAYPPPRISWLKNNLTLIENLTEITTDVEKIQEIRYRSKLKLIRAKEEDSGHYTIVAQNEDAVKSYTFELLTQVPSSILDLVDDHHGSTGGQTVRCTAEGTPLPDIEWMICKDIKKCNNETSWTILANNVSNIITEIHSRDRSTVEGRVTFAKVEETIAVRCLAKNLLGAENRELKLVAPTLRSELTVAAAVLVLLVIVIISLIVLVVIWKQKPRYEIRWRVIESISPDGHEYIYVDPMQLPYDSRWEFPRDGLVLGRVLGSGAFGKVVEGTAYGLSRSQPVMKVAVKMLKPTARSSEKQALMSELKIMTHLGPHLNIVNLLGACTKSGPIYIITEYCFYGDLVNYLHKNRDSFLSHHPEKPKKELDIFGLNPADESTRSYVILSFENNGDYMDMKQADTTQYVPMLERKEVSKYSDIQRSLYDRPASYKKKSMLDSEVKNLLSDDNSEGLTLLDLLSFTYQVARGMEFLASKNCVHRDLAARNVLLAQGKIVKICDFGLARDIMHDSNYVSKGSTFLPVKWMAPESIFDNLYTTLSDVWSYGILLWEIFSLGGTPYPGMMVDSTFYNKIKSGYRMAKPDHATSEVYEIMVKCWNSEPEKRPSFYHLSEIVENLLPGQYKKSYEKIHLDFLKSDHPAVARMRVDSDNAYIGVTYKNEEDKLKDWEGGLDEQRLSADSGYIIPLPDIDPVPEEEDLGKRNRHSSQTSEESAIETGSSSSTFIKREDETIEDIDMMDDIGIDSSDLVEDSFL
Sequence of c-RAF(h) (P04049 whole entry): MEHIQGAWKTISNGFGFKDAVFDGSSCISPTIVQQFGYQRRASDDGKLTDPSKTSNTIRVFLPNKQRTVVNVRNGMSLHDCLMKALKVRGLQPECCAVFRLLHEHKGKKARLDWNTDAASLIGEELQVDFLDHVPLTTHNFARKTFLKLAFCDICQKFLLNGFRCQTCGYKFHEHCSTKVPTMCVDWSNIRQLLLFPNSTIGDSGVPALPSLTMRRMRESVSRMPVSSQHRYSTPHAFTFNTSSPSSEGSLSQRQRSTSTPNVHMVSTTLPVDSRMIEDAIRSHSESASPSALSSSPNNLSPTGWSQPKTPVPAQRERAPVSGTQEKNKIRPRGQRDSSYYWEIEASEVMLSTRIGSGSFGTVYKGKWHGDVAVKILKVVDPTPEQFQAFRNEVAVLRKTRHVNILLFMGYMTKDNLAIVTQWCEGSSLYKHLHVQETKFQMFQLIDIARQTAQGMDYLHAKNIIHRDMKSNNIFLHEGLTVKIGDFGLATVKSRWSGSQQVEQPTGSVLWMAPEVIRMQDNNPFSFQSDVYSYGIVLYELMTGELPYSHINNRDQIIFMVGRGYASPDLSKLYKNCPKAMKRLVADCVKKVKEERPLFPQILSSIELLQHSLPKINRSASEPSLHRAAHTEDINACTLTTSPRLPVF
Sequence of Flt1(h) (P17948 27-1338): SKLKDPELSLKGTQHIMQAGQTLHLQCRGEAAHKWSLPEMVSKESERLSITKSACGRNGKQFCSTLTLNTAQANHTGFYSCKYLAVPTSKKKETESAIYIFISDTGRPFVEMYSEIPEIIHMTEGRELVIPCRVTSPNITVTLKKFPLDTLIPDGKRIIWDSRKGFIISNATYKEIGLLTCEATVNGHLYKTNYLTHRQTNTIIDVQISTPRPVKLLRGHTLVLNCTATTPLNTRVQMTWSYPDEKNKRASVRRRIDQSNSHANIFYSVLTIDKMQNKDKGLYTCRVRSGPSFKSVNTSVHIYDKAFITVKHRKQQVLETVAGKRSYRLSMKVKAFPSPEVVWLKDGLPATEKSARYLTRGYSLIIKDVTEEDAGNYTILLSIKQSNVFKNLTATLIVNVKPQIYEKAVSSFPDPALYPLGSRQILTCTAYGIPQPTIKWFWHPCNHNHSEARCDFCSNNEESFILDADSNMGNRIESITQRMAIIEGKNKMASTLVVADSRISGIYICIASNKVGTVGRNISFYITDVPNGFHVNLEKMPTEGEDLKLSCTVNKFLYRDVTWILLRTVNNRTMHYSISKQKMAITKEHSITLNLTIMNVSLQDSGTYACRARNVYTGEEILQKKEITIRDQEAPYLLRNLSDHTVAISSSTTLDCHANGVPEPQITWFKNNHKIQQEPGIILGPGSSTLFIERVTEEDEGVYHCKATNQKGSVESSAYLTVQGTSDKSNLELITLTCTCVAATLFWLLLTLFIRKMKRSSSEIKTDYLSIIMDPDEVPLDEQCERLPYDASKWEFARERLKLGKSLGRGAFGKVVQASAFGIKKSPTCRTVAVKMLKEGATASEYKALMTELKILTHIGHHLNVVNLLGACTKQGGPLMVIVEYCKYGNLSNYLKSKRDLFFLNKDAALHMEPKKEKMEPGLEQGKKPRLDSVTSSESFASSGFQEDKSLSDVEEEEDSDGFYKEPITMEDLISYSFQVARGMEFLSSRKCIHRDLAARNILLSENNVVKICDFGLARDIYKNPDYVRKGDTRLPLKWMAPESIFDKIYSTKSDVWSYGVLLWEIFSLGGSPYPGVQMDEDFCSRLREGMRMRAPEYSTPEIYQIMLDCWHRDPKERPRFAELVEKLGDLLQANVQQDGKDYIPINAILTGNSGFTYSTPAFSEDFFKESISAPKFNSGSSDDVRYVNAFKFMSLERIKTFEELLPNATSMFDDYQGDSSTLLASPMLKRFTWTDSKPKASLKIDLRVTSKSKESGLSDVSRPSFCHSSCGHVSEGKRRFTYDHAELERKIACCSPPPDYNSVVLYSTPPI

As for `CNC(=O)c1cccc2cc(Oc3ccnc4cc(OCC5(N)CC5)c(OC)cc34)ccc12` [AL3810], the IC50 is 293 nM against c-RAF(h); 15 nM on KDR(h); 2 nM at Flt4(h); 4 nM at Flt1(h); 219 nM at PDGFRα(h); 234 nM on cKit(h). Also, in test [1], the “efficacy on animal model compared with SU11248” value was “better efficacy than SU11248”. In test [2], the “efficacy on animal model compared with Nexavar” value was “better efficacy”.
